Source: patent US6525001B1, “Substituted pyrimidine and pyridine herbicides” (Mid-American Commercialization Corporation, priority 1997, dated 2003)

Assays:
Format in all cases: in vivo
Set-up in all cases: key: 0 is no effect; 10 is complete control
[1] = tested on: rice (Oryza sativa); assay: Test B flood test
How it was run: (§1)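 Each value is a visual injury score relative to controls, with 10 meaning complete control and 0 no effect. Evaluation took place twelve to sixteen days after the 2-leaf-stage plants were treated and kept in the greenhouse.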

[2] = tested on: duck salad (Heteranthera limosa); assay: Test B flood test
How it was run: as §1

[3] = tested on: smallflower flatsedge (Cyperus difformis); assay: Test B flood test
How it was run: as §1

[4] = tested on: bamyardgrass (Echinochloa crus-galli); assay: Test B flood test
How it was run: as §1

[5] = tested on: velvetleaf (Abutilon theophrasti); assay: Test B pre-/postemergence
How it was run: (§2)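 Response scores run from 0, meaning no effect, to 10, meaning complete control, assigned by eye relative to controls twelve to sixteen days after spraying. Treatment was both preemergence on planted seed and postemergence on plants at the 1- to 4-leaf stage.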

[6] = tested on: soybean (Glycine max); assay: Test B pre-/postemergence
How it was run: as §2

[7] = tested on: rape (Brassica napus); assay: Test B pre-/postemergence
How it was run: as §2

[8] = tested on: broadleaf signalgrass (Brachiaria decumbens); assay: Test B pre-/postemergence
How it was run: as §2

[9] = tested on: crabgrass (Digitaria sanguinalis); assay: Test B pre-/postemergence
How it was run: as §2

[10] = tested on: cocklebur (Xanthium strumarium); assay: Test B pre-/postemergence
How it was run: as §2

[11] = tested on: sugar beet (Beta vulgaris); assay: Test B pre-/postemergence
How it was run: as §2

[12] = tested on: momingglory (Ipomoea hederacea); assay: Test B pre-/postemergence
How it was run: as §2

[13] = tested on: wild oat (Avena fatua); assay: Test B pre-/postemergence
How it was run: as §2

[14] = tested on: giant foxtail (Setaria faberii); assay: Test B pre-/postemergence
How it was run: as §2

[15] = tested on: corn (Zea mays); assay: Test B pre-/postemergence
How it was run: as §2

[16] = tested on: purple nutsedge (Cyperus rotundus); assay: Test B pre-/postemergence; conditions: Rate 62 g/ha
How it was run: as §2

[17] = tested on: bedstraw (Galium aparine); assay: Test B pre-/postemergence; conditions: Postemergence
How it was run: as §2

[18] = tested on: pigweed (Amaranthus retroflexus); assay: Test B pre-/postemergence
How it was run: as §2

[19] = tested on: wheat (Triticum aestivum); assay: Test B pre-/postemergence
How it was run: as §2

[20] = tested on: blackgrass (Alopecurus myosuroides); assay: Test B pre-/postemergence
How it was run: as §2

[21] = Rate 62 g/ha, Postemergence (flood test)
[22] = Rate 125 g/ha, Postemergence section (flood test species)
[23] = Rate 250 g/ha, Postemergence (flood test species)
[24] = Preemergence, Rate 62 g/ha, scale of 0 to 10

SMILES: O=C(c1cccc(C(F)(F)F)c1)c1ccnc(-c2ccc(C(F)(F)F)cc2)n1 [Compound 77]
- Rice plant response rating [1, 21]: 0
- Rice plant response rating [1, 22]: 0
- Plant response rating, Rice [1, 23]: 0
- Ducksalad plant response rating [2, 21]: 0
- Ducksalad plant response rating [2, 22]: 0
- Plant response rating, Ducksalad [2, 23]: 0
- S. Flatsedge plant response rating [3, 21]: 0
- S. Flatsedge plant response rating [3, 22]: 0
- Plant response rating, S. Flatsedge [3, 23]: 0
- Barnyardgrass plant response rating [4, 21]: 0
- Barnyardgrass plant response rating [4, 22]: 0
- Plant response rating, Barnyardgrass [4, 23]: 0
- Plant response rating, Velvetleaf [5, 24]: 0
- Velvetleaf plant response rating ([5]; Rate 62 g/ha, Postemergence): 1
- Velvetleaf plant response rating ([5]; Rate 125 g/ha, Postemergence): 1
- Plant response rating, Velvetleaf ([5]; Rate 125 g/ha, Preemergence): 0
- Plant response rating, Velvetleaf ([5]; Rate 250 g/ha, Postemergence): 1
- Plant response rating, Velvetleaf ([5]; Rate 250 g/ha, Preemergence): 3
- Plant response rating, Soybean [6, 24]: 0
- Soybean plant response rating ([6]; Rate 62 g/ha, Postemergence): 0
- Soybean plant response rating ([6]; Rate 125 g/ha, Postemergence): 1
- Plant response rating, Soybean ([6]; Rate 125 g/ha, Preemergence): 0
- Plant response rating, Soybean ([6]; Rate 250 g/ha, Postemergence): 1
- Plant response rating, Soybean ([6]; Rate 250 g/ha, Preemergence): 0
- Plant response rating, Rape [7, 24]: 0
- Rape plant response rating ([7]; Rate 62 g/ha, Postemergence): 1
- Rape plant response rating ([7]; Rate 125 g/ha, Postemergence): 1
- Plant response rating, Rape ([7]; Rate 125 g/ha, Preemergence): 0
- Plant response rating, Rape ([7]; Rate 250 g/ha, Postemergence): 2
- Plant response rating, Rape ([7]; Rate 250 g/ha, Preemergence): 0
- B. signalgrass plant response rating ([8]; Rate 62 g/ha, Postemergence): 0
- B. signalgrass plant response rating ([8]; Rate 62 g/ha, Preemergence): 0
- B. signalgrass plant response rating ([8]; Rate 125 g/ha, Postemergence): 0
- Plant response rating, B. signalgrass ([8]; Rate 125 g/ha, Preemergence): 0
- Plant response rating, B. signalgrass ([8]; Rate 250 g/ha, Postemergence): 1
- Plant response rating, B. signalgrass ([8]; Rate 250 g/ha, Preemergence): 0
- Plant response rating, Crabgrass [9, 24]: 0
- Crabgrass plant response rating ([9]; Rate 62 g/ha, Postemergence): 0
- Crabgrass plant response rating ([9]; Rate 125 g/ha, Postemergence): 2
- Plant response rating, Crabgrass ([9]; Rate 125 g/ha, Preemergence): 0
- Plant response rating, Crabgrass ([9]; Rate 250 g/ha, Postemergence): 2
- Plant response rating, Crabgrass ([9]; Rate 250 g/ha, Preemergence): 1
- Plant response rating, Cocklebur [10, 24]: 0
- Cocklebur plant response rating ([10]; Rate 62 g/ha, Postemergence): 1
- Cocklebur plant response rating ([10]; Rate 125 g/ha, Postemergence): 3
- Plant response rating, Cocklebur ([10]; Rate 125 g/ha, Preemergence): 0
- Plant response rating, Cocklebur ([10]; Rate 250 g/ha, Postemergence): 3
- Plant response rating, Cocklebur ([10]; Rate 250 g/ha, Preemergence): 0
- Plant response rating, Sugarbeets [11, 24]: 0
- Sugarbeets plant response rating ([11]; Rate 62 g/ha, Postemergence): 1
- Sugarbeets plant response rating ([11]; Rate 125 g/ha, Postemergence): 1
- Plant response rating, Sugarbeets ([11]; Rate 125 g/ha, Preemergence): 0
- Plant response rating, Sugarbeets ([11]; Rate 250 g/ha, Postemergence): 3
- Plant response rating, Sugarbeets ([11]; Rate 250 g/ha, Preemergence): 0
- Plant response rating, Morningglory [12, 24]: 0
- Morningglory plant response rating ([12]; Rate 62 g/ha, Postemergence): 2
- Morningglory plant response rating ([12]; Rate 125 g/ha, Postemergence): 4
- Plant response rating, Morningglory ([12]; Rate 125 g/ha, Preemergence): 0
- Plant response rating, Morningglory ([12]; Rate 250 g/ha, Postemergence): 4
- Plant response rating, Morningglory ([12]; Rate 250 g/ha, Preemergence): 1
- Plant response rating, Wild oats [13, 24]: 0
- Wild oats plant response rating ([13]; Rate 62 g/ha, Postemergence): 0
- Wild oats plant response rating ([13]; Rate 125 g/ha, Postemergence): 0
- Plant response rating, Wild oats ([13]; Rate 125 g/ha, Preemergence): 0
- Plant response rating, Wild oats ([13]; Rate 250 g/ha, Postemergence): 1
- Plant response rating, Wild oats ([13]; Rate 250 g/ha, Preemergence): 0
- Plant response rating, Giant foxtail [14, 24]: 0
- Giant foxtail plant response rating ([14]; Rate 62 g/ha, Postemergence): 0
- Giant foxtail plant response rating ([14]; Rate 125 g/ha, Postemergence): 1
- Plant response rating, Giant foxtail ([14]; Rate 125 g/ha, Preemergence): 0
- Plant response rating, Giant foxtail ([14]; Rate 250 g/ha, Postemergence): 1
- Plant response rating, Giant foxtail ([14]; Rate 250 g/ha, Preemergence): 1
- Plant response rating, Corn [15, 24]: 0
- Corn plant response rating ([15]; Rate 62 g/ha, Postemergence): 1
- Corn plant response rating ([15]; Rate 125 g/ha, Postemergence): 1
- Plant response rating, Corn ([15]; Rate 125 g/ha, Preemergence): 0
- Plant response rating, Corn ([15]; Rate 250 g/ha, Postemergence): 1
- Plant response rating, Corn ([15]; Rate 250 g/ha, Preemergence): 0
- Plant response rating, Nutsedge ([16]; Preemergence, scale of 0 to 10): 0
- Nutsedge plant response rating ([16]; Postemergence): 0
- Bedstraw plant response rating ([17]; Rate 62 g/ha): 1
- Bedstraw plant response rating ([17]; Rate 125 g/ha): 1
- Plant response rating, Bedstraw ([17]; Rate 250 g/ha): 4
- Plant response rating, Redroot pigweed [18, 24]: 0
- Redroot pigweed plant response rating ([18]; Rate 62 g/ha, Postemergence): 2
- Redroot pigweed plant response rating ([18]; Rate 125 g/ha, Postemergence): 2
- Plant response rating, Redroot pigweed ([18]; Rate 125 g/ha, Preemergence): 0
- Plant response rating, Redroot pigweed ([18]; Rate 250 g/ha, Postemergence): 3
- Plant response rating, Redroot pigweed ([18]; Rate 250 g/ha, Preemergence): 0
- Plant response rating, Wheat [19, 24]: 0
- Wheat plant response rating ([19]; Rate 62 g/ha, Postemergence): 0
- Wheat plant response rating ([19]; Rate 125 g/ha, Postemergence): 0
- Plant response rating, Wheat ([19]; Rate 125 g/ha, Preemergence): 0
- Plant response rating, Wheat ([19]; Rate 250 g/ha, Postemergence): 0
- Plant response rating, Wheat ([19]; Rate 250 g/ha, Preemergence): 0
- Plant response rating, Blackgrass [20, 24]: 0
- Blackgrass plant response rating ([20]; Rate 62 g/ha, Postemergence): 0
- Blackgrass plant response rating ([20]; Rate 125 g/ha, Postemergence): 0
- Plant response rating, Blackgrass ([20]; Rate 125 g/ha, Preemergence): 0
- Plant response rating, Blackgrass ([20]; Rate 250 g/ha, Postemergence): 2
- Plant response rating, Blackgrass ([20]; Rate 250 g/ha, Preemergence): 0
